# Laboratory results: patent US9446051B2, “Neuroprotection and myelin repair using nestorone®” (The Population Council, Inc., priority 2009, dated 2016)
# Columns and labels:
# [1] = tested on: primary hippocampal neuron cultures; conditions: cited from earlier work; for protection against glutamate toxicity: alone or in combination, 48 hours before glutamate insult
# Bax/Bcl-2 = assay: In vivo apoptotic activity, Bax/Bcl-2 ratio by Western blot
# Excerpt: The effects of various progestins on apoptosis was studied using Western blot analysis to determine the expression level of Bax, an apoptosis mediator by […] to the mitochondria to release apoptotic factors such as cytochrome c and Bcl-2. The ratio of Bax to Bcl-2 was used as an indicator of in vivo apoptotic activity.
# [2] = tested on: hippocampus of Sprague-Dawley ovariectomized female rats; assay: In vivo NPC proliferation and cell viability in ovariectomized rats (Western blot, FACS of BrdU+ cells); parameters: species or system rat; conditions: for PCNA expression at the protein level: FIG. 8A
# Protocol: The generalized ability of the above in vitro findings to the in vivo condition were investigated. Analyses of NPC proliferation in rats and cell viability were conducted in three-month-old Sprague-Dawley ovariectomized female rats with various of the progestins. […] In order to assess the total number of BrdU+ cells, the contralateral hippocampal hemisphere used for protein analysis was fixed and processed by FACS analysis. The total number of BrdU+ cells per each hippocampus was determined and normalized to that of vehicle control. […] In order to measure cell viability in terms of promotion of mitochondrial function and reduction in oxidative damage expression of the alpha subunit of ATP synthase-Complex V (CVα) of the mitochondrial oxidative phosphorylation pathway was assessed by Western blot analysis.
# [3] = tested on: organotypic neonatal rat or mouse cerebellar slice culture; assay: Myelination in organotypic cerebellar slice culture, measured by myelin basic protein (MBP) immunoreactivity; type: cell-based
# Excerpt: In experiments conducted in organotypic neonatal rat or mouse cerebellar slice culture, progesterone accelerated axon myelination (13,14).
# [4] = tested on: neural progenitor cell (NPC); assay: Neural progenitor cell proliferation, BrdU chemiluminescence ELISA; type: cell-based, rat; conditions: for proliferation of progenitor cells compared with progesterone: FIG. 3 and FIG. 4; for NPC proliferation (BrdU incorporation) compared with progesterone: at 24 hours, FIGS. 6A-D
# Protocol: In vitro studies were carried out to determine neural progenitor cell (NPC) regeneration in rats. Cell proliferation was determined by S phase incorporation of BrdU. After 4 to 6 hours starvation (medium without supplements), rNPCs were loaded with 10 μM BrdU in the presence or absence of bFGF and varying concentrations of P4 or test progestins in unsupplemented maintenance medium for 1d. The rNPCs were then processed as described previously (1, 14). After subtracting the value of the blank (without BrdU loading), data were analyzed using a one-way ANOVA, followed by a Neuman-Keuls post hoc test.
# PR^lacz mice with MCAO = assay: Transient middle cerebral artery occlusion (MCAO), steroid treatment after reperfusion; type: in vivo, mouse
# Protocol: In experiments conducted using progesterone receptor (PR) deficient mice (PR^−/−) compared with PR^+/− and PR^+/+ mice and both progesterone and Nestorone® were administered after ischemia and reperfusion.
# In order to test the effect of steroid treatments after reperfusion, adult male PR^lacz mice were anesthetized and the middle cerebral artery (MCA) was occluded for one hour with an intraluminal filament. After ligature of the left common carotid artery, a nylon monofilament coated with thermo-melting glue was introduced through an arteriotomy performed on the external carotid artery and advanced into the internal carotid artery. Occlusion of the MCA was controlled by monitoring the cerebral blood flow within the MCA territory by laser Doppler flowmetry. The filament was withdrawn one hour after occlusion to allow reperfusion, and the common carotid artery ligature was also removed. The mice were randomly and blindly assigned to either progesterone, allopregnanolone or Nestorone®, or vehicle-treated (sesame oil; sigma). All of the steroids were initially dissolved in a small volume of ethanol and further diluted in sesame oil to obtain the desired final steroid concentrations. Injections were given interperitoneally (IP) at 1, 6, and 24 hours after MCA occlusion (MCAO) according to established neuroprotective protocols. Treated mice were killed at 48 hours after MCAO.
# Cerebral infarct volumes and areas were determined after triphenyltetrazolium chloride (TTC) staining of brain sections. The details of this procedure are set forth in “Progesterone Receptors: A Key For Neuroprotection In Experimental Stroke,” Endocrinology, August 2012, 153(8), pp. 1-11, which is incorporated herein by reference thereto in its entirety. […] In FIGS. 11, 12 and 13, after the administration of progesterone and Nestorone®, in neuronal density the infarct (FIG. 11) and the penumbra (FIG. 12) can clearly be shown. In FIG. 13 the decrease in […] in the penumbra after administration of progesterone and Nestorone® is also clearly shown.
# [5] = tested on: primary hippocampal neurons; assay: Neuroprotection of primary hippocampal neurons against glutamate, LDH release; type: cell-based; conditions: for neuroprotective efficacy against 200 μM glutamate (LDH release) compared with progesterone: dose-response, FIGS. 7A-F
# Protocol: The effect of NES and other progestins on CNS plasticity and the neuroprotective efficacy against glutamate toxicity has also been evaluated. LDH was measured, as a well-accepted assay, to determine such effect after exposure of the cells to glutamate, and the neuronal viability was assessed under the action of various progestins.
# Comparisons of neuroprotection against neurodegenerative insults were carried out. Efficacy was determined in connection with the protection of primary hippocampal neurons against degeneration induced by excitoxic glutamate. Hippocampal neuronal cultures grown on […] culture plates for 7d in vitro were pretreated with vehicle alone or test compounds, followed by exposure to 200 μM glutamate as previously described (13). After glutamate exposure, cultures were washed with HEPES-buffered saline solution and replaced with fresh NBM containing the test compounds or combinations. Cultures were returned to the incubator and incubated for 24 hours prior to analysis of neuronal viability using colorimetric LDH release in the media. Dose-response analysis was conducted for each of the progestins tested, and the results are shown in FIGS. 7A-F. Neuroprotective efficiency was calculated as follows: NE=(Vsample−Vglutamate)/(Vsubcontrol−Vglutamate).
# [6] = tested on: androgenic, estrogenic and glucocorticoid responses; conditions: cited from earlier work
# [7] = tested on: hippocampi of ovariectomized female Sprague Dawley rats; type: in vivo; conditions: stated 'as noted above'
# Protocol: The impact of the combination of 17β-estradiol (E2) and various progestins on neurogenesis and cell viability […] was also carried out. Young adult ovariectomized female Sprague Dawley rates were thus divided into six groups and received injection of either E2 alone or E2 combined with one of the progestins. Hippocampi were isolated 24 hours later for Western blot analysis and flow cytometry to determine the impact of treatment on cell viability and neurogenesis respectively. The expression level of PCNA was assessed to determine the impact of the treatment compounds on entry into the cell cycle required for neurogenesis.
# [8] = indicator of in vivo apoptotic activity
structure (smiles),measurement,setting,value
CC(=O)[C@H]1CC[C@H]2[C@@H]3CCC4=CC(=O)CC[C@@H]4[C@H]3CC[C@]12C [19-norprogesterone],protection against glutamate toxicity,[1],protected against glutamate toxicity
CC(=O)[C@H]1CC[C@H]2[C@@H]3CCC4=CC(=O)CC[C@]4(C)[C@H]3CC[C@]12C [progesterone],protection against glutamate toxicity,[1],protected against glutamate toxicity
same,ratio of Bax/Bcl-2 expression,Bax/Bcl-2; [8],no effect
same,CDC2 protein expression,[2]; Western blot,significantly increased
same,concentration of equal promyelinating activity,[3]; NES at 20 μm as active as PROG at 50 μm (FIG. 1),50 μm
same,myelination in cerebellar slices from PR knockout mice,[3]; PR knockout mice,did not increase myelination
same,myelination measured by myelin basic protein (MBP) immunoreactivity,[3]; cerebellar slice culture,promote dose-dependent myelination
same,proliferation of progenitor cells compared with progesterone,[4],increases the proliferation
same,NPC proliferation (BrdU incorporation) compared with progesterone,[4],comparably efficacious at their EC100 concentrations
same,efficient neuroprotective dose,PR^lacz mice with MCAO; after stroke,8 mg/kg
same,microglial density in the penumbra (neuroinflammatory responses),PR^lacz mice with MCAO; treatment after stroke,reduced microglial density
same,neuronal density in the infarct and in the penumbra,PR^lacz mice with MCAO; treatment after stroke,significantly increases the neuronal density
same,neuroprotective efficacy against glutamate toxicity (LDH),"[5]; FIG. 5, NES and PROG at 10−7M",exerted the higher efficacy
C#C[C@]1(OC(C)=O)CC[C@H]2[C@@H]3CCC4=CC(=O)CC[C@@H]4[C@H]3CC[C@@]21C [norethindrone acetate],proliferation of progenitor cells compared with progesterone,[4],antagonistic
same,NPC proliferation (BrdU incorporation) compared with progesterone,[4],minimal or no effect on proliferation
C#C[C@]1(O)CC[C@H]2[C@@H]3CCC4=CC(=O)CC[C@@H]4[C@H]3CC[C@@]21CC [levonorgestrel],ratio of Bax/Bcl-2 expression,Bax/Bcl-2; [8],significantly increased
same,PCNA expression at the protein level,[2]; Western blot,no significant effect
C#C[C@]1(O)CC[C@H]2[C@@H]3CCC4=CC(=O)CC[C@@H]4[C@H]3CC[C@@]21C [norethindrone],androgenic response,[6],exert androgenic and estrogenic responses
same,estrogenic response,[6],exert androgenic and estrogenic responses
same,neuroprotective efficacy against 200 μM glutamate (LDH release) compared with progesterone,[5],less potent than progesterone
"CC(=O)O[C@]1(C(C)=O)CC[C@H]2[C@@H]3C[C@H](C)C4=CC(=O)CC[C@]4(C)[C@H]3CC[C@@]21C [MPA, medroxyprogesterone acetate]",cell proliferation,[7],increased cell proliferation
same,protection against glutamate toxicity,[1],failed to protect against glutamate toxicity
same,effect on estrogen-induced neuroprotection when coadministered,[1]; coadministered with 17β-E2,attenuated the estrogen-induced neuroprotection
same,ratio of Bax/Bcl-2 expression,Bax/Bcl-2; in vivo,significantly increased
same,total number of BrdU+ cells per hippocampus,"[2]; FACS, normalized to vehicle control, FIG. 8B",no significant effect on cell proliferation
same,PCNA expression at the protein level,[2]; Western blot,no significant effect
same,expression of alpha subunit of ATP synthase-Complex V (CVα),"[2]; Western blot, FIG. 8C",no significant effect
same,androgenic response,[6],induce androgenic responses
same,glucocorticoid response,[6],induces both androgenic and glucocorticoid responses
same,proliferation of progenitor cells compared with progesterone,[4],antagonistic
same,NPC proliferation (BrdU incorporation) compared with progesterone,[4],significantly inhibited proliferation at multiple concentrations
same,neuroprotective efficacy against 200 μM glutamate (LDH release) compared with progesterone,[5],less potent than progesterone
C#C[C@]1(O)CC[C@H]2[C@@H]3CCC4=C(CCC(=O)C4)[C@H]3CC[C@@]21C [norethynodrel],androgenic response,[6],exert androgenic and estrogenic responses
same,estrogenic response,[6],exert androgenic and estrogenic responses
same,proliferation of progenitor cells compared with progesterone,[4],more proliferative than progesterone
same,"NPC proliferation (BrdU incorporation) compared with progesterone, high nanomolar ranges",[4]; high nanomolar ranges,significantly more efficacious than progesterone
same,"NPC proliferation (BrdU incorporation) compared with progesterone, low nanomolar range",[4]; low nanomolar range,comparable effects to progesterone
same,neuroprotective efficacy against 200 μM glutamate (LDH release) compared with progesterone,[5],more potent than progesterone at minimal effective concentrations
C#C[C@]1(OC(C)=O)CC[C@H]2[C@@H]3CCC4=CC(=NO)CC[C@@H]4[C@H]3CC[C@@]21CC (mixture of isomers) [norgestimate],proliferation of progenitor cells compared with progesterone,[4],more proliferative than progesterone
same,NPC proliferation (BrdU incorporation) compared with progesterone,[4],more potent in cell proliferation than progesterone at all concentrations
same,neuroprotective efficacy against 200 μM glutamate (LDH release) compared with progesterone,[5],less potent than progesterone
"C[C@]12CC[C@@H]3c4ccc(O)cc4CC[C@H]3[C@@H]1CC[C@@H]2O [estradiol, 17β-estradiol]",protection against glutamate toxicity,[1],protected against glutamate toxicity
